Laboratory results from US9354230B2, “Methods and apparatus for conducting multiple measurements on a sample” (MESO SCALE TECHNOLOGIES, LLC., priority 2001, dated 2016).

Columns and labels:
[1] = target: T1, HIV Reverse Transcriptase (RT) RNA-dependent DNA polymerase (RDDP) activity (Human immunodeficiency virus type 1 group M subtype B, UniProt P04585); experiment: ECL assay of HIV RT RDDP activity in one well of an MDMW Plate; format: biochemical; conditions: 125 uM; data not shown
T1 construct: HIV Reverse Transcriptase (RT), an enzyme with both a RNA-dependent DNA polymerase (RDDP) activity and an RNAse H activity

[2] = target: T2, HIV Reverse Transcriptase (RT) RNAse H activity (Human immunodeficiency virus type 1 group M subtype B, UniProt P04585); experiment: ECL assay of HIV RT RNAse H activity in one well of an MDMW Plate; format: biochemical; conditions: 125 uM; data not shown
T2 construct: HIV Reverse Transcriptase (RT), an enzyme with both a RNA-dependent DNA polymerase (RDDP) activity and an RNAse H activity

## Nc1ccn([C@H]2CC[C@@H](COP(=O)(O)OP(=O)(O)OP(=O)(O)O)O2)c(=O)n1 [ddCTP]
[1]
  inhibition of RDDP activity: completely inhibited
[2]
  effect on RNAse H activity: no effect
